Test results taken from patent US20200253929A1, “TREATMENT OF EPILEPSY” (priority 2017, published 2020).

Assays:
Format in all cases: in vivo, Danio rerio
[1] = test system: PTZ-induced seizures in zebrafish larvae; assay: Zebrafish PTZ seizure model, behavioral analysis; conditions: for PTZ-induced seizures (seizure-like behavior): vs VHC+PTZ
Method: To investigate whether the isolated compounds display antiseizure activity, they were tested in the zebrafish PTZ seizure model after both an acute (2 hours) and chronic (18 hours) incubation time at their maximum tolerated concentration (MTC) (Table 1, FIG. 1).
In case no MTC was reached, 100 μg/mL was used as the test concentration. In line with studies previously reported [Baraban et al. (2005) Neurosci 131, 759-768; Afrikanova et al. (2013) PLoS One 8, e54166], addition of the GABAA-receptor antagonist PTZ to the swimming water of 7 days post-fertilization (dpf) zebrafish larvae strongly elevated larval locomotion (p≤0.001) (FIGS. 2 and 3) as a result of induced seizures (or seizure-like behavior) that were recognized as typical high-speed swimming, whirlpool-like circling, clonus-like seizures, and loss of posture, as previously described in Baraban et al cited above.
Experimental procedure was described in Afrikanova et al.(2013) PLoS One 8, e54166 and Orellana-Paucar et al. (2012) Epilepsy Behav 24, 14-22. In brief, a single 7 dpf larva (in case of 2 hours incubation) or 6 dpf larva (in case of 18 hours incubation) was placed in each well of a 96-well plate and treated with either VHC (1% DMSO) or compound (1% DMSO) in a 100 μL volume. Larvae were incubated in dark for 2 or 18 hours at 28° C., whereafter 100 μL of either VHC (embryo medium) or 40 mM PTZ (dissolved in embryo medium, 20 mM working concentration) was added to each well. Next, within 5 min the 96-well plate was placed in an automated tracking device (ZebraBox Viewpoint, France) and larval behavior was video recorded for 30 min. The complete procedure was performed in dark conditions using infrared light. Total locomotor activity was recorded by ZebraLab software (Viewpoint, France) and expressed in actinteg units, which is the sum of pixel changes detected during the defined time interval (5 min). Larval behavior was depicted as mean actinteg units/5 min during the 30 min recording period and over 5 min time intervals. Data are expressed as mean±SD or as mean ±SEM when the means of independent experiments were pooled.

[2] = test system: PTZ-induced epileptiform brain activity in zebrafish larvae; assay: Zebrafish PTZ seizure model, local field potential recordings (electrophysiology); conditions: 10 min recording, vs VHC+PTZ; for reduction of percentage of larvae with PTZ-induced epileptiform activity: MTC and optimal incubation time (2 h azaspirofuran, 18 h pseurotins), 15 min PTZ; for cumulative duration of epileptiform events / number of epileptiform events: MTC and optimal incubation time
Text: To determine whether azaspirofuran A and pseurotin A2 can ameliorate the PTZ-induced hyperexcitable state of the brain that is characterized by epileptiform discharges, local field potential (LFP) recordings were non-invasively measured from the midbrain (optic tectum) of zebrafish larvae [Zdebik et al. (2013) PLoS One 8, e79765; Britton et al. (2016) In Electroencephalography (EEG): An Introductory Text and Atlas of Normal and Abnormal Findings in Adults, Children, and Infants (St. Louis and Frey, Eds.), Chicago]. To that end larvae were treated with either VHC or test compound (MTC and optimal incubation time were used) followed by a 15 min during exposure to PTZ or VHC prior to the electrophysiology measurements (FIG. 4). […] Thus, both compounds not only ameliorate PTZ-induced seizures but are likely to do so by lowering the PTZ-induced hyperexcitable state of the brain.
Experimental procedure was described before [Zdebik et al. (2013) PLoS One 8, e79765; Sourbron et al. (2017) Front. Pharmac. 8, 191; Copmans et al. (2018) Neurochem. Int. 112, 124-133.]. Non-invasive LFP recordings were measured from the midbrain (optic tectum) of 7 dpf zebrafish larvae pre-incubated with VHC only, PTZ only, compound and VHC, or compound and PTZ. Larvae were incubated for approximately 2 or 18 hours with VHC (1% DMSO) or compound (1% DMSO) in a 100 μL volume. After incubation, 100 μL of VHC (embryo medium) or 40 mM PTZ (dissolved in embryo medium, 20 mM working concentration) was added to the well for 15 min prior to recording. These steps occurred at 28° C., while further manipulation and electrophysiological recordings occurred at room temperature (21° C.). The larva was embedded in 2% low melting point agarose (Invitrogen) and the signal electrode (an electrode inside a soda-glass pipet (1412227, Hilgenberg) pulled with a DMZ Universal Puller (Zeitz, Germany), diameter±20 microns, containing artificial cerebrospinal fluid (ACSF: 124 mM NaCl, 10 mM glucose, 2 mM KCl, 2 mM MgSO4, 2 mM CaCl2, 1.25 mM KH2PO4, and 26 mM NaHCO3, 300-310 mOsmols)) was positioned on the skin covering the optic tectum. A differential extracellular amplifier (DAGAN, USA) amplified the voltage difference between the signal (measured by the signal electrode) and the reference electrode. The differential signal was band pass filtered at 0.3-300 Hz and digitized at 2 kHz via a PCI-6251 interface (National instruments, UK) using WinEDR (John Dempster, University of Strathclyde, UK). A grounding electrode grounded the electrical system. All electrodes were connected with ACSF. Each recording lasted 600 seconds. Manual analysis was completed by quantification of the number, cumulative duration, and mean duration of epileptiform-like events with Clampfit 10.2 software (Molecular Devices Corporation, USA). An electrical discharge was considered epileptiform if it was a poly-spiking event comprising at least 3 spikes with a minimum amplitude of three times the baseline amplitude and a duration of at least 100 milliseconds. Data are expressed as mean±SD for the number and cumulative duration of epileptiform events and as mean±SEM for the mean duration of events.

[3] = test system: PTZ-induced seizures in zebrafish larvae; assay: Zebrafish PTZ seizure model, behavioral analysis; conditions: lower concentrations (MTC/2, MTC/4), 2 hours incubation

| SMILES | PTZ-induced seizure behavior, concentration-response retest ([1]; MTC, MTC/2, MTC/4, optimal incubation time, 30 min recording and 5 min intervals) | PTZ-induced seizures (seizure-like behavior) ([1]; at MTC, 18 hours of compound exposure) | reduction of percentage of larvae with PTZ-induced epileptiform activity [2] | cumulative duration of epileptiform events [2] | number of epileptiform events [2] | PTZ-induced seizure behavior, concentration-response retest ([1]; at MTC, 2 hours incubation, 30 min recording, three independent experiments) | PTZ-induced seizures (seizure-like behavior) ([1]; at MTC, 2 hours of compound exposure) | PTZ-induced seizure behavior, concentration-response retest [3] |
| --- | --- | --- | --- | --- | --- | --- | --- | --- |
| CC/C=C\[C@H](O)[C@H](O)C1=C(C)C(=O)[C@]2(O1)C(=O)N[C@](OC)(C(=O)c1ccccc1)[C@H]2O [pseurotin A2] | concentration-dependent activity | significantly lowered PTZ-induced seizures | 33% | shorter cumulative duration of events | significantly less epileptiform events | – | – | – |
| CCc1ccc(C2=C(C)C(=O)C3(O2)C(=O)NC(OC)(C(=O)c2ccccc2)C3O)o1 (centres unmarked) [azaspirofuran A] | – | – | ~60% | shorter cumulative duration of events | significantly less epileptiform events | lowered PTZ-induced seizure behavior to the same extent as before | significantly lowered PTZ-induced seizures | No antiseizure activity |
